Experimental data published in the SangsterLogP compilation.

Assay: not given
Settings: not given
Work on `C=CCCNc1nc(CCC)nc(N2CCOCC2)n1` yielded a logP of 2.47.
In the case of `CCCc1nc(NCN(C)C)nc(N2CCOCC2)n1`, the logP is reported as 1.94.
For `CCCCNc1nc(CCC)nc(N2CCOCC2)n1`, the logP was 2.78.
Molecule `CCCc1nc(NCC(C)C)nc(N2CCOCC2)n1` has a logP of 2.65.
`CCCc1nc(N)nc(N2CCCCC2)n1` showed a logP of 2.43.
Molecule `CCCc1nc(NC)nc(N2CCOCC2)n1` has a logP of 2.02.

Assay: method code SF-HPLC, from DOI: 10.1016/s0223-5234(98)80011-1
Settings: pH 7.4
With `C1CC1Cc1nc(NC2CC2)nc(N2CC3CCC(C2)O3)n1` the logD was 3.07.
With `CCCCc1nc(NC2CC2)nc(N2CCOCC2)n1` the logD was 2.8.
`OC1CN(c2nc(CC3CC3)nc(NC3CC3)n2)C1` gave a logD of 1.71.
For `CCCc1nc(NCC)nc(N2CCOCC2)n1`, the logD was 2.23.
Work on `CCCCc1nc(NC2CC2)nc(N2CC(O)C2)n1` yielded a logD of 1.61.
With `CCCc1nc(N)nc(N2CCOCC2)n1` the logD was 1.55.
With `C1CC(Cc2nc(NC3CC3)nc(N3CCOCC3)n2)C1` the logD was 3.14.
In the case of `O=S1CCN(c2nc(CC3CC3)nc(NC3CC3)n2)CC1`, the logD is reported as 1.56.
`CCCc1nc(NCCC(=O)N(C)C)nc(N2CCOCC2)n1` gave a logD of 0.67.
`OCCN(CCO)c1nc(CC2CC2)nc(NC2CC2)n1` gave a logD of 1.82.
Work on `CCCCc1nc(NC2CC2)nc(N2CC3CCC(C2)O3)n1` yielded a logD of 3.02.
Molecule `CCCc1nc(NCC)nc(N2CCCCC2)n1` has a logD of 3.34.
Molecule `CC(C)Cc1nc(NC2CC2)nc(N2CC3CCC(C2)O3)n1` has a logD of 3.34.
For `Cc1nc(NC2CC2)nc(N2CC3CCC(C2)O3)n1`, the logD was 1.84.
For `O=S1(=O)CCN(c2nc(CC3CC3)nc(NC3CC3)n2)CC1`, the logD was 1.76.
In the case of `CCCc1nc(NCc2ccccc2OC)nc(N2CCOCC2)n1`, the logD is reported as 3.59.
In the case of `C1CN(c2nc(CC3CC3)nc(NC3CC3)n2)CCO1`, the logD is reported as 2.33.
With `C1CCC(Cc2nc(NC3CC3)nc(N3CCOCC3)n2)C1` the logD was 3.6.
`CCCc1nc(NC(=O)c2ccccc2)nc(N2CCOCC2)n1` showed a logD of 2.33.
`CCCc1nc(NCN2CCCC2=O)nc(N2CCOCC2)n1` gave a logD of 1.62.
`CCCCc1nc(NC2CC2)nc(N(CCO)CCO)n1` gave a logD of 1.76.
`COC1CN(c2nc(CC3CC3)nc(NC3CC3)n2)C1` gave a logD of 2.37.
Molecule `CCCc1nc(NC2CC2)nc(N2CCOCC2)n1` has a logD of 2.11.
